In ChEMBL document CHEMBL1121791, “Computer-assisted structure-activity studies of chemical carcinogens. Aromatic amines” (J Med Chem, 1981):

Key:
Type in all cases: functional, organism-based
Rattus norvegicus [1] = experiment: Carcinogenic activity on breast after intraperitoneal administration
Rattus norvegicus [2] = experiment: Carcinogenic activity on all sites after intraperitoneal administration
Rattus norvegicus [3] = experiment: Carcinogenic activity on liver after subcutaneous administration
Rattus norvegicus [4] = experiment: Carcinogenic activity on all sites after subcutaneous administration
Rattus norvegicus [5] = experiment: Carcinogenic activity on other sites after subcutaneous administration
Rattus norvegicus [6] = experiment: Carcinogenic activity on breast after oral administration
Rattus norvegicus [7] = experiment: Carcinogenic activity on all sites after oral administration
Rattus norvegicus [8] = experiment: Carcinogenic activity on mixed data after oral administration
Rattus norvegicus [9] = experiment: Carcinogenic activity on liver after oral administration
Rattus norvegicus [10] = experiment: Carcinogenic activity on breast after oral administration of the compound
Rattus norvegicus [11] = experiment: Carcinogenic activity on other sites after oral administration
Rattus norvegicus [12] = experiment: Carcinogenic activity on ear duct after oral administration
Rattus norvegicus [13] = experiment: Carcinogenic activity on ear duct after subcutaneous administration
Rattus norvegicus [14] = experiment: Carcinogenic activity on breast after subcutaneous administration

Measured: Activity

CC(=O)Nc1cccc2c1Cc1ccccc1-2
Carcinogenic activity: Rattus norvegicus [1] | Rattus norvegicus [2]

N#Cc1cc(/C=C/c2ccccc2)ccc1N
Carcinogenic activity: Rattus norvegicus [3] | Rattus norvegicus [4] | Rattus norvegicus [5]

Nc1cccc2c1ccc1ccccc12
Carcinogenic activity: Rattus norvegicus [6] | Rattus norvegicus [7]

Cc1cc(/C=C/c2ccccc2)ccc1N
Carcinogenic activity: Rattus norvegicus [4] | Rattus norvegicus [5]

Cc1cc(C)c(-c2ccc(N)cc2C)c(C)c1
Carcinogenic activity: Rattus norvegicus [4] | Rattus norvegicus [5]

N/C(=N\O)c1ccc([N+](=O)[O-])o1
Carcinogenic activity: Rattus norvegicus [6] | Rattus norvegicus [8] | Rattus norvegicus [7]

CC(=O)Nc1ccc2c(c1)-c1ccccc1C2
Carcinogenic activity: Rattus norvegicus [1] | Rattus norvegicus [2]

CC(=O)N(O)c1ccc2c(c1)Cc1cc(F)ccc1-2
Carcinogenic activity: Rattus norvegicus [9] | Rattus norvegicus [8] | Rattus norvegicus [10] | Rattus norvegicus [11] | Rattus norvegicus [7] | Rattus norvegicus [12]

Cc1cc(/N=N/c2ccccc2C)ccc1N
Carcinogenic activity: Rattus norvegicus [3] | Rattus norvegicus [4]

CC(=O)N(O)c1ccc2c(c1)-c1ccccc1C2
Carcinogenic activity: Rattus norvegicus [1] | Rattus norvegicus [2]

Cc1cc(-c2ccccc2C)ccc1N
Carcinogenic activity: Rattus norvegicus [6] | Rattus norvegicus [8] | Rattus norvegicus [11] | Rattus norvegicus [7] | Rattus norvegicus [12]

Cc1cc(N)ccc1/C=C/c1ccccc1
Carcinogenic activity: Rattus norvegicus [4] | Rattus norvegicus [5]

Nc1ccc(/C=C/c2ccc(N)cc2)cc1
Carcinogenic activity: Rattus norvegicus [13] | Rattus norvegicus [4]

CC(=O)ON(C(C)=O)c1ccc(-c2ccccc2)cc1
Carcinogenic activity: Rattus norvegicus [4] | Rattus norvegicus [5]

Nc1ccc(/C=C/c2ccc(N)c(Cl)c2)cc1Cl
Carcinogenic activity: Rattus norvegicus [4] | Rattus norvegicus [5]

CC(=O)ON(C(C)=O)c1cccc2ccc3ccccc3c12
Carcinogenic activity: Rattus norvegicus [4] | Rattus norvegicus [5]

COc1cc(/C=C/c2ccccc2)c(OC)cc1N
Carcinogenic activity: Rattus norvegicus [13] | Rattus norvegicus [4]

CC(=O)Nc1ccc2c(c1)Cc1ccc(F)cc1-2
Carcinogenic activity: Rattus norvegicus [9] | Rattus norvegicus [8] | Rattus norvegicus [10] | Rattus norvegicus [11] | Rattus norvegicus [7] | Rattus norvegicus [12]

Nc1ccc2c(ccc3ccccc32)c1
Carcinogenic activity: Rattus norvegicus [6] | Rattus norvegicus [7]

NNc1nc(-c2ccc([N+](=O)[O-])o2)cs1
Carcinogenic activity: Rattus norvegicus [6] | Rattus norvegicus [7]

CC(=O)Nc1ccc2c(ccc3ccccc32)c1
Carcinogenic activity: Rattus norvegicus [6] | Rattus norvegicus [9] | Rattus norvegicus [8] | Rattus norvegicus [11] | Rattus norvegicus [7] | Rattus norvegicus [12]

CC(=O)Nc1ccc2c(c1)Cc1cc(NC(C)=O)ccc1-2
Carcinogenic activity: Rattus norvegicus [9] | Rattus norvegicus [8] | Rattus norvegicus [10] | Rattus norvegicus [11] | Rattus norvegicus [7] | Rattus norvegicus [12]

Cc1ccc(C)c(-c2ccc(N)cc2C)c1
Carcinogenic activity: Rattus norvegicus [4] | Rattus norvegicus [5]

Nc1ccc(/C=C/c2ccc(F)cc2)cc1
Carcinogenic activity: Rattus norvegicus [13] | Rattus norvegicus [8] | Rattus norvegicus [3] | Rattus norvegicus [4] | Rattus norvegicus [5]

Nc1ccc(/C=C/c2ccc(N)cc2Cl)c(Cl)c1
Carcinogenic activity: Rattus norvegicus [3] | Rattus norvegicus [4]

Nc1ccc(/C=C/c2ccccc2)cc1
Carcinogenic activity: Rattus norvegicus [6] | Rattus norvegicus [7] | Rattus norvegicus [12]

CC(=O)N(O)c1ccc2c(ccc3ccccc32)c1
Carcinogenic activity: Rattus norvegicus [14] | Rattus norvegicus [4] | Rattus norvegicus [5]

CC(=O)ON(C(C)=O)c1ccc2c(c1)Cc1ccccc1-2
Carcinogenic activity: Rattus norvegicus [4] | Rattus norvegicus [5]

CNc1ccc2c(c1)Cc1ccccc1-2
Carcinogenic activity: Rattus norvegicus [9] | Rattus norvegicus [8] | Rattus norvegicus [10] | Rattus norvegicus [11] | Rattus norvegicus [7] | Rattus norvegicus [12]

CC(=O)N(OC(=O)c1ccccc1)c1ccc2c(c1)Cc1ccccc1-2
Carcinogenic activity: Rattus norvegicus [4] | Rattus norvegicus [5]

Cc1cc(Cc2ccc(N)c(C)c2)ccc1N
Carcinogenic activity: Rattus norvegicus [9] | Rattus norvegicus [8] | Rattus norvegicus [10] | Rattus norvegicus [11] | Rattus norvegicus [7]

CC(=O)N(O)c1cccc2c1Cc1ccccc1-2
Carcinogenic activity: Rattus norvegicus [1] | Rattus norvegicus [2]

CC(=O)Nc1csc(-c2ccc([N+](=O)[O-])o2)n1
Carcinogenic activity: Rattus norvegicus [14] | Rattus norvegicus [4] | Rattus norvegicus [5]

CC(=O)N(C(C)=O)c1ccc(/C=C/c2ccccc2)cc1
Carcinogenic activity: Rattus norvegicus [13] | Rattus norvegicus [4] | Rattus norvegicus [5]

Cc1ccc(/N=N/c2cc(C)ccc2N)cc1
Carcinogenic activity: Rattus norvegicus [6]

CC(=O)Nc1cc2c(cc1F)-c1ccccc1C2
Carcinogenic activity: Rattus norvegicus [9] | Rattus norvegicus [8] | Rattus norvegicus [10] | Rattus norvegicus [7] | Rattus norvegicus [12]

CN(C)c1ccc(/C=C/c2ccccc2F)cc1
Carcinogenic activity: Rattus norvegicus [9] | Rattus norvegicus [8] | Rattus norvegicus [10] | Rattus norvegicus [7] | Rattus norvegicus [12]

COc1cc(N)ccc1-c1ccccc1
Carcinogenic activity: Rattus norvegicus [4] | Rattus norvegicus [5]

CC(=O)N(C(C)=O)c1ccc2c(c1)Cc1ccccc1-2
Carcinogenic activity: Rattus norvegicus [9] | Rattus norvegicus [8] | Rattus norvegicus [10] | Rattus norvegicus [11] | Rattus norvegicus [7] | Rattus norvegicus [12]

[O-][n+]1ccc(NO)c2ccccc21
Carcinogenic activity: Rattus norvegicus [6] | Rattus norvegicus [11] | Rattus norvegicus [7]

NNc1nc(-c2ccc([N+](=O)[O-])cc2)cs1
Carcinogenic activity: Rattus norvegicus [6] | Rattus norvegicus [7]

CN(C)c1ccc2c(c1)Cc1ccccc1-2
Carcinogenic activity: Rattus norvegicus [9] | Rattus norvegicus [8] | Rattus norvegicus [10] | Rattus norvegicus [11] | Rattus norvegicus [7] | Rattus norvegicus [12]

O=CNNc1nc(-c2ccc([N+](=O)[O-])o2)cs1
Carcinogenic activity: Rattus norvegicus [6] | Rattus norvegicus [11] | Rattus norvegicus [7]

Nc1ccc(-c2ccccc2)cc1
Carcinogenic activity: Rattus norvegicus [6] | Rattus norvegicus [7]
